In patent US10570140B2, “Selective inhibitors of protein arginine methyltransferase 5 (PRMT5)” (Prelude Therapeutics, Incorporated, priority 2017, dated 2020) one finds IC50 data, which are given here for 25 compounds.

Molecules are shown by their SMILES.

For orientation: IC50 means the midpoint of a concentration-inhibition curve.

The target of the first assay is PRMT5/MEP50 complex (Homo sapiens (Human), UniProt O14744). The assay is described as follows: PRMT5 biochemical assay (3H-SAM filter plate, histone H2A substrate).
PRMT5/MEP50 complex, sequence (O14744 whole entry): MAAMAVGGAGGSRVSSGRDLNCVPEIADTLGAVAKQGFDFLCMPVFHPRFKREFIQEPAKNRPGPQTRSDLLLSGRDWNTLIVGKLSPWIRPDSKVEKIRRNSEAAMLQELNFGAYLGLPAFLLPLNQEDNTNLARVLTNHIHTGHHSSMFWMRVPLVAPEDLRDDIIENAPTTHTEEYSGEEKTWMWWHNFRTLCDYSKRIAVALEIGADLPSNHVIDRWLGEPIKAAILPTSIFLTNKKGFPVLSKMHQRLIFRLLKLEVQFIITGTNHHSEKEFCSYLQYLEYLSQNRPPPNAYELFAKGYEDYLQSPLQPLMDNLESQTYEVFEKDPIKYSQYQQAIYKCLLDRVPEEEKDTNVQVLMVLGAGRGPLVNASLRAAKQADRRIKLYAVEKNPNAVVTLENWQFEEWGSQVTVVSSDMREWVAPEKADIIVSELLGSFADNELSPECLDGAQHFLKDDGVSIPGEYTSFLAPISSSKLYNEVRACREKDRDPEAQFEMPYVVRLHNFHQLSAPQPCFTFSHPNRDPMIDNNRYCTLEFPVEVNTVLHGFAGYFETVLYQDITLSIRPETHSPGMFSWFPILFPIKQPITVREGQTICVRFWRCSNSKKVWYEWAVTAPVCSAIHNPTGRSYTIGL
PRMT5/MEP50 complex, sequence (Q9BQA1 whole entry partner): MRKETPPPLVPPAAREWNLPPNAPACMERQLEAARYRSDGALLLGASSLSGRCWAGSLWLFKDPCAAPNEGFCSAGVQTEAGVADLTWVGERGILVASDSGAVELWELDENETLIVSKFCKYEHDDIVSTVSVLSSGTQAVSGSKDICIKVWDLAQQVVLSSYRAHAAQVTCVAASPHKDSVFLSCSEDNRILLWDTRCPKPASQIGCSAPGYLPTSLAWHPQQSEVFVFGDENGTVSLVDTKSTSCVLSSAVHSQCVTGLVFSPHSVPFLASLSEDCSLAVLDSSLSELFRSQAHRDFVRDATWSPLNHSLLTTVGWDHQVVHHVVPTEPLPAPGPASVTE
Conditions: not given
The procedure:
Biochemical Assay Protocol
Compounds were solubilized and 3-fold diluted in 100% DMSO. […] Standard reactions were performed in a total volume of 50 μl in assay buffer, with histone H2A (5 μM final) as substrate. To this was added the PRMT5/MEP50 complex diluted to provide a final assay concentration of 5 nM and the compounds were allowed to preincubate for 15 to 20 minutes at room temperature. The reaction was initiated by adding S-[3H-methyl]-adenosyl-L-methionine (PerkinElmer) to final concentration of 1 μM. Following a 60 minutes incubation at 30° C., the reaction was stopped by adding 100 μL of 20% TCA. Each reaction was spotted onto filter plate (MultiScreen FB Filter Plate, Millipore), and washed 5 times with PBS buffer, Scintillation fluid was added to the filter plate and read in a scintillation counter. IC50 values were determined by fitting the data to the standard 4 parameters with Hill Slope using GraphPad Prism software.
Take `CO/N=c1\[nH]cnc2c1ccn2[C@@H]1O[C@H](COc2ccc3ccc(N)nc3c2)[C@@](C)(O)[C@H]1O` [Example 32, 7-((2R,3R,4S,5R)-5-(((2-aminoquinolin-7-yl)oxy)methyl)-3,4-dihydroxy-4-methyltetrahydrofuran-2-yl)-3,7-dihydro-4H-pyrrolo[2,3-d]pyrimidin-4-one O-methyloxime]: the IC50 was 10 nM.

The same assay, now with this note: PRMT5/MEP50 5 nM, histone H2A 5 μM, SAM 1 μM; read-out: PRMT5 IC50.
For the compound `C[C@@]1(O)[C@@H](Cc2ccc(Cl)c(Cl)c2)O[C@@H](n2ccc3c(N)ncnc32)[C@@H]1O` [Example 50, (2R,3S,4R,5R)-5-(4-amino-7H-pyrrolo[2,3-d]pyrimidin-7-yl)-2-(3,4-dichlorobenzyl)-3-methyltetrahydrofuran-3,4-diol], the IC50 turned out to be 17 nM.
Still for that read-out and setting: for `C=C[C@@]1(O)[C@@H](COc2ccc3ccc(N)nc3c2)O[C@@H](n2ccc3c(N)ncnc32)[C@@H]1O` [Example 4, (2R,3S,4R,5R)-5-(4-amino-7H-pyrrolo[2,3-d]pyrimidin-7-yl)-2-(((2-aminoquinolin-7-yl)oxy)methyl)-3-vinyltetrahydrofuran-3,4-diol] the value was 8.7 nM; for `Cc1ncnc2c1ccn2[C@@H]1O[C@H](COc2ccc3ccc(N)nc3c2)[C@@](C)(O)[C@H]1O` [Example 10, (2R,3S,4R,5R)-2-(((2-aminoquinolin-7-yl)oxy)methyl)-3-methyl-5-(4-methyl-7H-pyrrolo[2,3-d]pyrimidin-7-yl)tetrahydrofuran-3,4-diol], 1.1 nM; for `C[C@@]1(O)[C@@H](Cc2ccc(Cl)cc2CO)O[C@@H](n2ccc3c(N)ncnc32)[C@@H]1O` [Example 65, (2R,3S,4R,5R)-5-(4-amino-7H-pyrrolo[2,3-d]pyrimidin-7-yl)-2-(4-chloro-2-(hydroxymethyl)benzyl)-3-methyltetrahydrofuran-3,4-diol], 413 nM.
On to `Cc1ncnc2c1ccn2[C@@H]1O[C@H](Cc2ccc(Cl)cc2CO)[C@@](C)(O)[C@H]1O` [Example 64, (2R,3S,4R,5R)-2-(4-chloro-2-(hydroxymethyl)benzyl)-3-methyl-5-(4-methyl-7H-pyrrolo[2,3-d]pyrimidin-7-yl)tetrahydrofuran-3,4-diol], for which the IC50 was found to be 1610 nM.
As to `C[C@@]1(O)[C@@H]([C@H](O)c2ccc(Cl)cc2)O[C@@H](n2ccc3/c(=N/O)[nH]cnc32)[C@@H]1O` [Example 46, (Z)-7-((2R,3R,4S,5R)-5-((R)-(4-chlorophenyl)(hydroxy)methyl)-3,4-dihydroxy-4-methyltetrahydrofuran-2-yl)-3,7-dihydro-4H-pyrrolo[2,3-d]pyrimidin-4-one oxime], the IC50 came out at 92 nM.
On the same count and under the same terms, for `C[C@@]1(O)[C@@H](Cc2ccc3c(c2)OCO3)O[C@@H](n2ccc3c(N)ncnc32)[C@@H]1O` [Example 49, (2R,3S,4R,5R)-5-(4-amino-7H-pyrrolo[2,3-d]pyrimidin-7-yl)-2-(benzo[d][1,3]dioxol-5-ylmethyl)-3-methyltetrahydrofuran-3,4-diol] the value was 229 nM; for `CO/N=c1\[nH]cnc2c1ccn2[C@@H]1O[C@H](COc2ccc3ccc(NOC)nc3c2)[C@@](C)(O)[C@H]1O` [Example 45, (Z)-7-((2R,3R,4S,5R)-3,4-dihydroxy-5-(((2-(methoxyamino)quinolin-7-yl)oxy)methyl)-4-methyltetrahydrofuran-2-yl)-3,7-dihydro-4H-pyrrolo[2,3-d]pyrimidin-4-one O-methyl oxime], 11500 nM; for `Cc1ncnc2c1ccn2[C@@H]1O[C@H](COc2ccc3cccnc3c2)[C@@](C)(O)[C@H]1O` [Example 54, (2R,3S,4R,5R)-3-methyl-5-(4-methyl-7H-pyrrolo[2,3-d]pyrimidin-7-yl)-2-((quinolin-7-yloxy)methyl)tetrahydrofuran-3,4-diol], 198 nM.
Same read-out and setting: to `C[C@@]1(O)[C@@H](C(=O)Nc2cccc(CN)c2)O[C@@H](n2ccc3c(Cl)ncnc32)[C@@H]1O` [Example 42, (2S,3S,4R,5R)-N-(3-(aminomethyl)phenyl)-5-(4-chloro-7H-pyrrolo[2,3-d]pyrimidin-7-yl)-3,4-dihydroxy-3-methyltetrahydrofuran-2-carboxamide] belongs 9100 nM; to `Cc1ncnc2c1ccn2[C@@H]1O[C@H]([C@H](O)c2ccc(OC(F)(F)F)cc2)[C@@](C)(O)[C@H]1O` [Example 60, (2R,3S,4R,5R)-2-((R)-hydroxy(4-(trifluoromethoxy)phenyl)methyl)-3-methyl-5-(4-methyl-7H-pyrrolo[2,3-d]pyrimidin-7-yl)tetrahydrofuran-3,4-diol], 368 nM.
On the same count and under the same terms, for `C[C@@]1(O)[C@@H](COc2cccc(NC(N)=O)c2)O[C@@H](n2ccc3c(N)ncnc32)[C@@H]1O` [Example 21, 1-(3-(((2R,3S,4R,5R)-5-(4-amino-7H-pyrrolo[2,3-d]pyrimidin-7-yl)-3,4-dihydroxy-3-methyltetrahydrofuran-2-yl)methoxy)phenyl)urea] the value was 7840 nM; for `CO/N=c1\[nH]cnc2c1ccn2[C@@H]1O[C@H]([C@H](O)c2ccc(Cl)cc2)[C@@](C)(O)[C@H]1O` [Example 44, (Z)-7-((2R,3R,4S,5R)-5-((R)-(4-chlorophenyl)(hydroxy)methyl)-3,4-dihydroxy-4-methyltetrahydrofuran-2-yl)-3,7-dihydro-4H-pyrrolo[2,3-d]pyrimidin-4-one O-methyl oxime], 3480 nM.
As to `C[C@@]1(O)[C@@H](COc2ccc3cccnc3c2)O[C@@H](n2ccc3c(N)ncnc32)[C@@H]1O` [Example 53, (2R,3S,4R,5R)-5-(4-amino-7H-pyrrolo[2,3-d]pyrimidin-7-yl)-3-methyl-2-((quinolin-7-yloxy)methyl)tetrahydrofuran-3,4-diol], the IC50 turned out to be 5.8 nM.
The same measure, in the same setting: to `CO/N=c1/nc[nH]c2c1ccn2[C@@H]1O[C@H]([C@H](O)c2ccc(Cl)c(Cl)c2)[C@@](C)(O)[C@H]1O` [Example 37, 7-((2R,3R,4S,5R)-5-((R)-(3,4-dichlorophenyl)(hydroxy)methyl)-3,4-dihydroxy-4-methyltetrahydrofuran-2-yl)-1,7-dihydro-4H-pyrrolo[2,3-d]pyrimidin-4-one O-methyl oxime] belongs 428 nM; to `CNc1ncnc2c1ccn2[C@@H]1O[C@H](CSC)[C@@](C)(O)[C@H]1O` [Example 40, (2S,3S,4R,5R)-3-methyl-5-(4-(methylamino)-7H-pyrrolo[2,3-d]pyrimidin-7-yl)-2-((methylthio)methyl)tetrahydrofuran-3,4-diol], 14100 nM; to `Cc1ncnc2c1ccn2[C@@H]1O[C@H]([C@H](O)c2ccc(F)c(C(F)(F)F)c2)[C@@](C)(O)[C@H]1O` [Example 61, (2R,3S,4R,5R)-2-((R)-(4-fluoro-3-(trifluorometh-yl)phenyl)(hydroxy)methyl)-3-methyl-5-(4-methyl-7H-pyrrolo[2,3-d]pyrimidin-7-yl)tetrahydrofuran-3,4-diol], 16 nM.
The same measure, in the same setting: for `C[C@@]1(O)[C@@H](COc2cccc(NC(N)=O)c2)O[C@@H](n2ccc3c(Cl)ncnc32)[C@@H]1O` [Example 41, 1-(3-(((2R,3S,4R,5R)-5-(4-chloro-7H-pyrrolo[2,3-d]pyrimidin-7-yl)-3,4-dihydroxy-3-methyltetrahydrofuran-2-yl)methoxy)phenyl)urea] the value was 200000 nM.
Turning to `COC[C@H]1O[C@@H](n2ccc3c(N)ncnc32)[C@H](O)[C@]1(C)O` [Example 19, (2R,3S,4R,5R)-5-(4-amino-7H-pyrrolo[2,3-d]pyrimidin-7-yl)-2-(methoxymethyl)-3-methyltetrahydrofuran-3,4-diol], the IC50 is 1440 nM.
With `Cc1cnc2cc(OC[C@H]3O[C@@H](n4ccc5c(N)ncnc54)[C@H](O)[C@]3(C)O)ccn12` [Example 68, (2R,3S,4R,5R)-5-(4-amino-7H-pyrrolo[2,3-d]pyrimidin-7-yl)-3-methyl-2-(((3-methylimidazo[1,2-a]pyridin-7-yl)oxy)methyl)tetrahydrofuran-3,4-diol], the IC50 amounted to 0.9 nM.
Same read-out and setting: for `Cc1ncnc2c1ccn2[C@@H]1O[C@H]([C@H](O)c2ccc(C(C)C)cc2)[C@@](C)(O)[C@H]1O` [Example 59, (2R,3S,4R,5R)-2-((R)-hydroxy(4-isopropylphenyl)methyl)-3-methyl-5-(4-methyl-7H-pyrrolo[2,3-d]pyrimidin-7-yl)tetrahydrofuran-3,4-diol] the value was 399 nM; for `C[C@@]1(O)[C@@H](C(=O)Nc2cccc(CN)c2)O[C@@H](n2ccc3c(N)ncnc32)[C@@H]1O` [Example 43, (2S,3S,4R,5R)-5-(4-amino-7H-pyrrolo[2,3-d]pyrimidin-7-yl)-N-(3-(aminomethyl)phenyl)-3,4-dihydroxy-3-methyltetrahydrofuran-2-carboxamide], 825 nM.
Same read-out and setting: to `C[C@@]1(O)[C@@H](COc2ccccc2)O[C@@H](n2ccc3c(N)ncnc32)[C@@H]1O` [Example 20, (2R,3S,4R,5R)-5-(4-amino-7H-pyrrolo[2,3-d]pyrimidin-7-yl)-3-methyl-2-(phenoxymethyl)tetrahydrofuran-3,4-diol] belongs 14300 nM; to `C[C@@]1(O)[C@@H](Cc2ccc(Cl)c(Cl)c2)O[C@@H](n2ccc3cncnc32)[C@@H]1O` [Example 51, (2R,3S,4R,5R)-2-(3,4-dichlorobenzyl)-3-methyl-5-(7H-pyrrolo[2,3-d]pyrimidin-7-yl)tetrahydrofuran-3,4-diol], 404 nM.

Another assay concerns sDMA. The assay can be described thus: Western blot for symmetric di-methyl arginine (sDMA) IC50 in Granta cells. The class given is cell-based. As to conditions: Homo sapiens, 72 h; Granta-519 cell line, 3 days. In general terms: A western blot detects proteins with antibodies after separation by electrophoresis.
With `C[C@@]1(O)[C@@H](Cc2ccc(Cl)c(Cl)c2)O[C@@H](n2ccc3c(N)ncnc32)[C@@H]1O` [Example 50, (2R,3S,4R,5R)-5-(4-amino-7H-pyrrolo[2,3-d]pyrimidin-7-yl)-2-(3,4-dichlorobenzyl)-3-methyltetrahydrofuran-3,4-diol], the midpoint of inhibition, the IC50, lay at 9000 nM.
